Assay results published in ChEMBL document CHEMBL1140893, “Cancer preventive agents. Part 8: Chemopreventive effects of stevioside and related compounds” (Bioorg Med Chem, 2009).

What was measured:
[1] = test system: Raji; assay: Inhibition of TPA-induced EBV-early antigen activation in human Raji cells at 1000 mol ratio after 48hrs by indirect immunofluorescence technique relative to control; assay type: cell-based; design: scale not given: the % may be the effect or the level left; conditions: human gammaherpesvirus 4
[2] = test system: Raji; assay: Inhibition of TPA-induced EBV-early antigen activation in human Raji cells at 500 mol ratio after 48hrs by indirect immunofluorescence technique relative to control; assay type: cell-based; design: scale not given: the % may be the effect or the level left; conditions: human gammaherpesvirus 4
[3] = test system: Raji; assay: Inhibition of TPA-induced EBV-early antigen activation in human Raji cells at 100 mol ratio after 48hrs by indirect immunofluorescence technique relative to control; assay type: cell-based; design: scale not given: the % may be the effect or the level left; conditions: human gammaherpesvirus 4
[4] = test system: Raji; assay: Inhibition of TPA-induced EBV-early antigen activation in human Raji cells at 10 mol ratio after 48hrs by indirect immunofluorescence technique relative to control; assay type: cell-based; design: scale not given: the % may be the effect or the level left; conditions: human gammaherpesvirus 4
[5] = Inhibition of TPA-induced EBV-early antigen activation in human Raji cells after 48hrs by indirect immunofluorescence technique; assay type: cell-based, human gammaherpesvirus 4
[6] = Cytotoxicity against human Raji cells assessed as cell viability at 1000 mol ratio by trypan blue staining; assay type: cell-based; conditions: read-out: Activity
[7] = Cytotoxicity against human Raji cells assessed as cell viability at 500 mol ratio by trypan blue staining; assay type: cell-based; conditions: read-out: Activity
[8] = Cytotoxicity against human Raji cells assessed as cell viability at 100 mol ratio by trypan blue staining; assay type: cell-based; conditions: read-out: Activity
[9] = Cytotoxicity against human Raji cells assessed as cell viability at 10 mol ratio by trypan blue staining; assay type: cell-based; conditions: read-out: Activity
[10] = test system: Mus musculus; assay: Inhibition of DMBA-induced/TPA-promoted carcinogenesis in mouse assessed as reduction in skin papillomas bearing mouse at 85 nmol administered 1 hr before TPA treatment measured after 15 weeks; assay type: functional; design: scale not given: the % may be the effect or the level left
[11] = test system: Mus musculus; assay: Inhibition of DMBA-induced/TPA-promoted carcinogenesis in mouse assessed as reduction in skin papillomas bearing mouse at 85 nmol administered 1 hr before TPA treatment measured after 20 weeks; assay type: functional, organism-based; design: Activity: scale not given: the % may be the effect or the level left
[12] = test system: Mus musculus; assay: Inhibition of DMBA-induced/TPA-promoted carcinogenesis in mouse assessed as number of skin papillomas per mouse at 85 nmol administered 1 hr before TPA treatment measured after 10 weeks; assay type: functional
[13] = test system: Mus musculus; assay: Inhibition of DMBA-induced/TPA-promoted carcinogenesis in mouse assessed as number of skin papillomas per mouse at 85 nmol administered 1 hr before TPA treatment measured after 15 weeks; assay type: functional
[14] = test system: Mus musculus; assay: Inhibition of DMBA-induced/TPA-promoted carcinogenesis in mouse assessed as number of skin papillomas per mouse at 85 nmol administered 1 hr before TPA treatment measured after 20 weeks; assay type: functional
[15] = test system: Mus musculus; assay: Inhibition of DMBA-induced/TPA-promoted carcinogenesis in mouse assessed as reduction in skin papillomas bearing mouse at 85 nmol administered 1 hr before TPA treatment measured after 10 weeks; assay type: functional; design: scale not given: the % may be the effect or the level left
[16] = test system: Mus musculus; assay: Inhibition of DMBA-induced/TPA-promoted carcinogenesis in mouse assessed as reduction in skin papillomas bearing mouse at 85 nmol administered 1 hr before TPA treatment measured after 9 weeks; assay type: functional; design: scale not given: the % may be the effect or the level left
[17] = test system: Mus musculus; assay: Inhibition of peroxynitrite-induced/TPA-promoted carcinogenesis in Sencar mouse assessed as reduction in skin papillomas bearing mouse at 85 nmol administered 1 hr before TPA treatment measured after 11 weeks; assay type: functional; design: scale not given: the % may be the effect or the level left
[18] = test system: Mus musculus; assay: Inhibition of peroxynitrite-induced/TPA-promoted carcinogenesis in Sencar mouse assessed as reduction in skin papillomas bearing mouse at 85 nmol administered 1 hr before TPA treatment measured after 15 weeks; assay type: functional; design: scale not given: the % may be the effect or the level left
[19] = test system: Mus musculus; assay: Inhibition of peroxynitrite-induced/TPA-promoted carcinogenesis in Sencar mouse assessed as reduction in skin papillomas bearing mouse at 85 nmol administered 1 hr before TPA treatment measured after 20 weeks; assay type: functional; design: scale not given: the % may be the effect or the level left
[20] = test system: Mus musculus; assay: Inhibition of peroxynitrite-induced/TPA-promoted carcinogenesis in Sencar mouse assessed as number of skin papillomas per mouse at 85 nmol administered 1 hr before TPA treatment measured after 11 weeks; assay type: functional
[21] = test system: Mus musculus; assay: Inhibition of peroxynitrite-induced/TPA-promoted carcinogenesis in Sencar mouse assessed as number of skin papillomas per mouse at 85 nmol administered 1 hr before TPA treatment measured after 15 weeks; assay type: functional
[22] = test system: Mus musculus; assay: Inhibition of peroxynitrite-induced/TPA-promoted carcinogenesis in Sencar mouse assessed as number of skin papillomas per mouse at 85 nmol administered 1 hr before TPA treatment measured after 20 weeks; assay type: functional
[23] = species on record: Mus musculus; assay: Reduction in peroxynitrite-induced/TPA-promoted number of skin papillomas in Sencar mouse after 20 weeks; assay type: functional; design: scale not given: the % may be the effect or the level left
[24] = test system: Mus musculus; assay: Inhibition of peroxynitrite-induced/TPA-promoted carcinogenesis in Sencar mouse assessed as number of skin papillomas per mouse at 85 nmol administered 1 hr before TPA treatment measured after 10 weeks; assay type: functional
[25] = test system: Mus musculus; assay: Inhibition of peroxynitrite-induced/TPA-promoted carcinogenesis in Sencar mouse assessed as reduction in skin papillomas bearing mouse at 85 nmol administered 1 hr before TPA treatment measured after 10 weeks; assay type: functional; design: scale not given: the % may be the effect or the level left

## CC1(C)[C@@H](O[C@H]2O[C@H](C(=O)O)[C@@H](O)[C@H](O)[C@H]2O[C@@H]2O[C@H](C(=O)O)[C@@H](O)[C@H](O)[C@H]2O)CC[C@]2(C)[C@H]3C(=O)C=C4[C@@H]5C[C@@](C)(C(=O)O)CC[C@]5(C)CC[C@@]4(C)[C@]3(C)CC[C@@H]12 [GLYCYRRHIZIN]
[1]
  Activity: 12.5%
[2]
  Activity: 36.9%
[3]
  Activity: 69.2%
[4]
  Activity: 100%
[5]
  IC50: 381 mol ratio/32 pmol TPA
[6]
  viability at 1000 mol ratio: 60%
[7]
  viability at 500 mol ratio: > 80%
[8]
  viability at 100 mol ratio: > 80%
[9]
  viability at 10 mol ratio: > 80%
[10]
  Activity: 60%
[11]
  Activity: 94%
[12]
  Activity: 2.8
[13]
  Activity: 4.6
[14]
  Activity: 6.2
[15]
  Activity: 50%

## C=C1C[C@@]23CC[C@H]4[C@@](C)(CCC[C@@]4(C)C(=O)O[C@@H]4O[C@H](CO)[C@@H](O)[C@H](O)[C@H]4O)[C@@H]2CC[C@]1(O[C@@H]1O[C@H](CO)[C@@H](O)[C@H](O)[C@H]1O[C@@H]1O[C@H](CO)[C@@H](O)[C@H](O)[C@H]1O)C3 [STEVIOSIDE]
[1]
  Activity: 3.2%
[2]
  Activity: 36.9%
[3]
  Activity: 67.4%
[4]
  Activity: 89.3%
[5]
  IC50: 360 mol ratio/32 pmol TPA
[7]
  viability at 500 mol ratio: > 80%
[8]
  viability at 100 mol ratio: > 80%
[9]
  viability at 10 mol ratio: > 80%
[16]
  Activity: 20%
[10]
  Activity: 53%
[11]
  Activity: 93%
[17]
  Activity: 40%
[18]
  Activity: 53%
[19]
  Activity: 87%
[20]
  Activity: 2
[21]
  Activity: 3
[22]
  Activity: 4.4
[23]
  Activity: 45%

## C[C@@]12CC[C@@H]3[C@@](CC[C@H]4[C@@]3(C)CCC[C@@]4(C)C(=O)O)(CC1=O)C2 [ISOSTEVIOL]
[1]
  Activity: 1.9%
[2]
  Activity: 34.2%
[3]
  Activity: 73%
[4]
  Activity: 90.6%
[5]
  IC50: 321 mol ratio/32 pmol TPA
[7]
  viability at 500 mol ratio: > 80%
[8]
  viability at 100 mol ratio: > 80%
[9]
  viability at 10 mol ratio: > 80%
[10]
  Activity: 60%
[11]
  Activity %: 87%
[12]
  Activity: 1.8
[13]
  Activity: 3.6
[14]
  Activity: 5
[15]
  Activity: 20%
[17]
  Activity: 33%
[18]
  Activity: 53%
[19]
  Activity: 73%
[21]
  Activity: 2.7
[22]
  Activity: 4.3
[24]
  Activity: 1.6
[23]
  Activity: 46.2%

## C=C1C[C@@]23CC[C@H]4[C@@](C)(CCC[C@@]4(C)C(=O)O[C@@H]4O[C@H](CO)[C@@H](O)[C@H](O)[C@H]4O)[C@@H]2CC[C@]1(O[C@@H]1O[C@H](C)[C@@H](O)[C@H](O)[C@@H]1O[C@@H]1O[C@H](CO)[C@@H](O)[C@H](O)[C@H]1O)C3 [DULCOSIDE A]
[1]
  Activity: 6.7%
[2]
  Activity: 40.9%
[3]
  Activity: 73%
[4]
  Activity: 92.5%

## C=C1C[C@@]23CC[C@H]4[C@@](C)(CCC[C@@]4(C)C(=O)O)[C@@H]2CC[C@]1(O)C3 [STEVIOL]
[1]
  Activity: 2.1%
[2]
  Activity: 35.6%
[3]
  Activity: 74.1%
[4]
  Activity: 91.2%
[5]
  IC50: 340 mol ratio/32 pmol TPA
[6]
  viability at 1000 mol ratio: 60%
[7]
  viability at 500 mol ratio: > 80%
[8]
  viability at 100 mol ratio: > 80%
[9]
  viability at 10 mol ratio: > 80%
[10]
  Activity: 60%
[11]
  Activity: 87%
[12]
  Activity: 1.8
[13]
  Activity: 3.7
[14]
  Activity: 5.4
[15]
  Activity: 27%
[18]
  Activity: 67%
[19]
  Activity: 93%
[21]
  Activity: 3.5
[22]
  Activity: 4.5
[24]
  Activity: 2.3
[25]
  Activity: 27%
[23]
  Activity: 44.4%

## C=C1C[C@@]23CC[C@H]4[C@@](C)(CCC[C@@]4(C)C(=O)O[C@@H]4O[C@H](CO)[C@@H](O)[C@H](O)[C@H]4O)[C@@H]2CC[C@]1(O[C@@H]1O[C@H](CO)[C@@H](O)[C@H](O[C@@H]2O[C@H](CO)[C@@H](O)[C@H](O)[C@H]2O)[C@H]1O[C@@H]1O[C@H](CO)[C@@H](O)[C@H](O)[C@H]1O)C3 [REBAUDIOSIDE A]
[6]
  viability at 1000 mol ratio: 60%
[7]
  viability at 500 mol ratio: > 80%
[8]
  viability at 100 mol ratio: > 80%
[9]
  viability at 10 mol ratio: > 80%

## C=C1C[C@@]23CC[C@H]4[C@@](C)(CCC[C@@]4(C)C(=O)O[C@@H]4O[C@H](CO)[C@@H](O)[C@H](O)[C@H]4O)[C@@H]2CC[C@]1(O[C@@H]1O[C@H](CO)[C@@H](O)[C@H](O[C@@H]2O[C@H](CO)[C@@H](O)[C@H](O)[C@H]2O)[C@H]1O[C@@H]1O[C@@H](C)[C@H](O)[C@@H](O)[C@H]1O)C3 [REBAUDIOSIDE C]
[6]
  viability at 1000 mol ratio: 60%
[7]
  viability at 500 mol ratio: > 80%
[8]
  viability at 100 mol ratio: > 80%
[9]
  viability at 10 mol ratio: > 80%

## COc1cc(/C=C/C(=O)CC(=O)/C=C/c2ccc(O)c(OC)c2)ccc1O [CURCUMIN]
[1]
  Activity: 0%
[2]
  Activity: 22.8%
[3]
  Activity: 81.7%
[4]
  Activity: 100%
[5]
  IC50: 331 mol ratio/32 pmol TPA
[6]
  viability at 1000 mol ratio: 60%
[7]
  viability at 500 mol ratio: > 80%
[8]
  viability at 100 mol ratio: > 80%
[9]
  viability at 10 mol ratio: > 80%
[23]
  Activity: 45.1%

## C=C1C[C@@]23CC[C@H]4[C@@](C)(CCC[C@@]4(C)C(=O)O[C@@H]4O[C@H](CO)[C@@H](O)[C@H](O)[C@H]4O)[C@@H]2CC[C@]1(O[C@@H]1O[C@H](CO)[C@@H](O)[C@H](O)[C@H]1O)C3 [RUBUSOSIDE]
[1]
  Activity: 12.5%
[2]
  Activity: 44.2%
[3]
  Activity: 76.8%
[4]
  Activity: 94.2%
[5]
  IC50: 450 mol ratio/32 pmol TPA
[6]
  viability at 1000 mol ratio: 60%
[7]
  viability at 500 mol ratio: > 80%
[8]
  viability at 100 mol ratio: > 80%
[9]
  viability at 10 mol ratio: > 80%
